The values that follow come from patent US10314305B2, “Liquid agrochemical compositions comprising a polymeric thickener and an alcohol-containing solvent system, and liquid herbicidal compositions having an alcohol-containing solvent system” (Syngenta Participations AG, priority 2012, dated 2019).

The data set is described as follows: Solubility of active ingredients in solvents.

Take `CCc1cc(C)cc(CC)c1-c1c(OC(=O)C(C)(C)C)n2n(c1=O)CCOCC2` [pinoxaden, 8-(2,6-diethyl-4-methylphenyl)-1,2,4,5-tetrahydro-7-oxo-7H-pyrazolo[1,2-d][1,4,5]oxadiazepin-9-yl 2,2-dimethylpropionate]: the “Solvent quality of 1,2-propylene carbonate for the active ingredient” value (1,2-propylene carbonate) is listed as “only a moderately good solvent”. For the same compound, for the setting “THFA”, the “Solvent quality of tetrahydrofurfuryl alcohol (THFA) for the active ingredient” value was “excellent solvent”. Further, where the note is “benzyl alcohol”, the “Solvent quality of benzyl alcohol for the active ingredient” value is on record as “excellent solvent”.
